We go through seven molecules from ChEMBL document CHEMBL1201862, “PubChem BioAssay data set” (2004).

Common to all, as to test: NCI-60 cell line screen, 48 h
Experiment [1] relates to DU-145.
Experiment [2] relates to IGROV-1.
Experiment [3] deals with COLO 205.
Experiment [4] concerns NCI-H226.
The subject of experiment [5] is HOP-62.
Experiment [6] concerns SK-MEL-5.
The subject of experiment [7] is SNB-75.
Experiment [8] deals with OVCAR-5.
Experiment [9] relates to SF-268.
The subject of experiment [10] is HCT-116.
For experiment [11], the system named is SR.
The test system of experiment [12] is UO-31.
Experiment [13] relates to OVCAR-3.
Experiment [14] has as its system SK-MEL-2.
Experiment [15] relates to MOLT-4.
Experiment [16] has as its system UACC-62.
Experiment [17] has as its system RXF 393.
Experiment [18] has as its system TK-10.
In experiment [19] the test system is HT-29.
Experiment [20] concerns Malme-3M.

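The compound was tested at five concentrations on cells cultured in 96-well plates, with a 48-hour exposure period. Here, GI50 denotes the concentration required for 50% inhibition of growth.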 Activity calls are given as the source filed them. No stated cut-off is given here; in the data, active = GI50 up to about 1.1 µM and inactive = higher. Bounds are passed on as bounds.

Consider `CO[C@H]1C[C@H](O[C@H]2CC[C@]3(C=O)[C@H]4CC[C@]5(C)[C@@H](C6=CC(=O)OC6)CC[C@]5(O)[C@@H]4CC[C@]3(O)C2)O[C@H](C)[C@H]1O[C@@H]1O[C@H](CO)[C@@H](O)[C@H](O)[C@H]1O`, for which the GI50 was 6.34e-06 µM (active) in experiment [1]; > 0.01 µM (active) in experiment [2]; 0.00011 µM (active) in experiment [3]; 7.85e-05 µM (active) in experiment [4]; 1.26e-05 µM (active) in experiment [5]; 2.62e-05 µM (active) in experiment [6]. In addition, the GI50 in experiment [7] was 5.1e-05 µM (active); in experiment [8], 3.52e-05 µM (active); in [9], 1.19e-05 µM (active); in [10], 9.73e-06 µM (active); in [11], > 0.01 µM (active); in [12], 3.49e-05 µM (active). Besides, the GI50 in experiment [13] is 7.67e-06 µM (active); in experiment [14] it was 8.26e-05 µM (active); in experiment [15] it was 5.42e-06 µM (active); in [16] it was 6.17e-05 µM (active); in experiment [17], 1.51e-05 µM (active); in [18], 2.48e-05 µM (active). Besides, the GI50 was 3.03e-05 µM (active) in experiment [19] and 2.7e-05 µM (active) in experiment [20].
As for `O=C(c1ccc(Br)cc1)n1c2ccc(Br)cc2c2nc3ccccc3nc21`, the GI50 in [1], in experiment [2], in experiment [3], in experiment [4], in [5] and in experiment [6] was > 100 µM (inactive) throughout. For the same molecule, the GI50 in experiment [7] is 76.7 µM (inactive); in experiment [8] it was > 100 µM (inactive); in experiment [9], > 100 µM (inactive); in experiment [10], > 100 µM (inactive); in experiment [11], 83.2 µM (inactive); in experiment [12], > 100 µM (inactive). For the same molecule, the GI50 is > 100 µM (inactive) in [13]; > 100 µM (inactive) in [14]; 43.9 µM (inactive) in [15]; > 100 µM (inactive) in [16]; > 100 µM (inactive) in [17]; > 100 µM (inactive) in experiment [18]. For the same molecule, the GI50 in [19] and in [20] was > 100 µM (inactive) throughout.
Take `COc1cc2c(cc1OC)-c1cc3cc(OC)c(OC)cc3c(=O)n1CC2`: the GI50 is 4.57 µM (inactive) in experiment [1]; 4.91 µM (inactive) in experiment [2]; 26.5 µM (inactive) in experiment [3]; 8.75 µM (inactive) in experiment [4]; 6.5 µM (inactive) in experiment [5]; 4.41 µM (inactive) in experiment [6]. In addition, the GI50 in [7] was 9.4 µM (inactive); in [8], > 62.2 µM (inactive); in [9], 26.5 µM (inactive); in experiment [10], 16.3 µM (inactive); in experiment [11] it was 2.07 µM (inactive); in experiment [12], 2.43 µM (inactive). Also, the GI50 is 15.7 µM (inactive) in experiment [13]; 11.5 µM (inactive) in experiment [14]; 3.51 µM (inactive) in experiment [15]; 5.35 µM (inactive) in experiment [16]; 17.3 µM (inactive) in experiment [17]; 8.07 µM (inactive) in [18]. Moreover, the GI50 is 28.6 µM (inactive) in experiment [19] and 8.04 µM (inactive) in experiment [20].
As to `COC(=O)/C(C#N)=C(\Nc1ccccc1)N1CCCC1`, the GI50 in experiment [1], in [2], in experiment [3], in experiment [4], in [5] and in experiment [6] was > 100 µM (inactive) each time. The GI50 in experiment [7], in [8], in [9], in experiment [10], in experiment [11] and in experiment [12] was > 100 µM (inactive) each time. Moreover, the GI50 in experiment [13], in experiment [14], in experiment [15], in experiment [17], in experiment [18] and in experiment [19] was > 100 µM (inactive) each time. For the same molecule, the GI50 in [20] is > 100 µM (inactive).
Consider `CCOP(=O)(OCC)OC1CC(n2cc(C)c(=O)n(C)c2=O)OC1CO[Si](C)(C)C(C)(C)C` (stereo not given), for which the GI50 in [1] is > 100 µM (inactive); in experiment [2], > 100 µM (inactive); in experiment [3], > 100 µM (inactive); in experiment [4], > 100 µM (inactive); in experiment [5], 79.6 µM (inactive); in [6] it was 58.9 µM (inactive). Besides, the GI50 in experiment [7] was 75.9 µM (inactive); in experiment [8], > 100 µM (inactive); in [9], > 100 µM (inactive); in [10], 40.8 µM (inactive); in experiment [11] it was 37.7 µM (inactive); in [12], 2.9 µM (inactive). Further, the GI50 is > 100 µM (inactive) in [13]; > 100 µM (inactive) in experiment [14]; 37 µM (inactive) in experiment [15]; > 100 µM (inactive) in experiment [16]; 21.6 µM (inactive) in experiment [17]; > 100 µM (inactive) in experiment [18]. The GI50 in experiment [19] and in experiment [20] was > 100 µM (inactive) in each case.
Turning to `CC(C)(C)OC(=O)[C@@H]1CCC(=S)N1Cc1ccccc1`, the GI50 in experiment [1] was > 100 µM (inactive); in experiment [2], > 100 µM (inactive); in [3], > 100 µM (inactive); in experiment [4] it was 60.1 µM (inactive); in [6] it was 47.4 µM (inactive); in [7], 37.8 µM (inactive). In addition, the GI50 in experiment [8] was > 100 µM (inactive); in experiment [10], > 100 µM (inactive); in experiment [11] it was 76.9 µM (inactive); in experiment [12], 78.2 µM (inactive); in experiment [13], > 100 µM (inactive); in experiment [14], > 100 µM (inactive). Moreover, the GI50 in [15] was 93.1 µM (inactive); in experiment [16] it was > 100 µM (inactive); in [17], > 100 µM (inactive); in experiment [18], > 100 µM (inactive); in experiment [20], > 100 µM (inactive).
Turning to `O=C1CC2(c3ccccc3)ON=C(c3ccccc3)N2c2ccccc2N1` (stereo not given), the GI50 in experiment [1] is 61.5 µM (inactive); in [2], 58.5 µM (inactive); in [3] it was 51.8 µM (inactive); in experiment [4], > 100 µM (inactive); in [5] it was 78.7 µM (inactive); in experiment [7], 52 µM (inactive). Moreover, the GI50 in experiment [8] is > 100 µM (inactive); in experiment [9] it was 50.5 µM (inactive); in experiment [10], 34.3 µM (inactive); in [11], 35.6 µM (inactive); in experiment [12], 32.4 µM (inactive); in experiment [13], 30.8 µM (inactive). Also, the GI50 in [14] was 50.2 µM (inactive); in [15], 29.7 µM (inactive); in experiment [16], 37.5 µM (inactive); in experiment [17], 87.1 µM (inactive); in experiment [18], 93.5 µM (inactive); in experiment [19], 38.3 µM (inactive). In experiment [20], the GI50 is 44.5 µM (inactive).
